Counter-ions that a name gives are not always drawn.
Row | melting point | Compound
1 | 149.5 to 153.3 °C | COc1cc2[nH]c(N(C)Cc3cccc(CC#N)c3)nc(=O)c2c(OC)c1OC [Example 107, (3-{[Methyl-(5,6,7-trimethoxy-4-oxo-1,4-dihydro-quinazloin-2-yl)-amino]-methyl}-phenyl)-acetonitrile]
2 | 174.3 to 176.4 °C | COc1cc2[nH]c(N(C)Cc3cccc(CN4CCC(O)C4)c3)nc(=O)c2c(OC)c1OC (stereo not shown) [Example 51, 2-{[3-(3-Hydroxy-pyrrolidin-1-ylmethyl)-benzyl]-methyl-amino}-5,6,7-trimethoxy-1H-quinazolin-4-one]
3 | 130 to 133 °C | COc1cc2[nH]c(N(C)Cc3cccc(N=C4CCCN4C)c3)nc(=O)c2c(OC)c1OC [Example G-39, 5,6,7-Trimethoxy-2-{methyl-[3-(1-methyl-pyrrolidin-2-ylideneamino)-benzyl]-amino}-1H-quinazolin-4-one]
4 | 131.3 to 133.1 °C | COc1cc2[nH]c(N(C)Cc3cccc(CN4CCC4)c3)nc(=O)c2c(OC)c1OC [Example 47, 2-[(3-Azetidin-1-ylmethyl-benzyl)-methyl-amino]-5,6,7-trimethoxy-1H-quinazolin-4-one]
5 | 60.5 to 61.5 °C | COc1cc2[nH]c(N(C)Cc3cccc(NCCO)c3)nc(=O)c2c(OC)c1OC [Example 182, 2-{[3-(2-Hydroxy-ethylamino)-benzyl]-methyl-amino}-5,6,7-trimethoxy-1H-quinazolin-4-one]
6 | 133.3 to 136.6 °C | COCCN1Cc2ccc(CN(C)c3nc(=O)c4c(OC)c(OC)c(OC)cc4[nH]3)cc2C1 [Example 18, 5,6,7-Trimethoxxy-2-{[2-(2-methoxy-ethyl)-2,3-dihydro-1H-isoindol-5-ylmethyl]-methyl-amino}-1H-quinazolin-4-one]
7 | 225 to 226.5 °C | COc1cc2[nH]c(N(C)Cc3cccc(N)c3)nc(=O)c2c(OC)c1OC [Example 103, 2-[(3-Amino-benzyl)-methyl-amino]-5,6,7-trimethoxy-1H-quinazolin-4-one]
8 | 230.9 to 232.1 °C | COC(=O)Nc1cccc(CN(C)c2nc(=O)c3c(OC)c(OC)c(OC)cc3[nH]2)c1 [Example 177, (3-{[Methyl-(5,6,7-trimethoxy-4-oxo-1,4-dihydro-quinazolin-2-yl)-amino]-methyl}-phenyl)-carbamic acid methylester]
9 | 120 to 122.4 °C | CCN(CCOC)Cc1ccc(CN(C)c2nc(=O)c3c(OC)c(OC)c(OC)cc3[nH]2)cc1 [Example 32, 2-[(4-{[Ethyl(2-methoxy-ethyl)-amino]-methyl}-benzyl)-methyl-amino]-5,6,7-trimethoxy-1H-quinazolin-4-one]
10 | 176.5 to 179.7 °C | COc1cc2[nH]c(N(C)Cc3cccc(NS(=O)(=O)N(C)C)c3)nc(=O)c2c(OC)c1OC [Example 171, N,N-Dimethyl-N′-(3-{[methyl-(5,6,7-trimethoxy-4-oxo-1,4-dihydro-quinazolin-2-yl)-amino]-methyl}-phenyl)-sulfamide]
11 | 142 to 145 °C | CCN(CCO)Cc1ccc(CN(C)c2nc(=O)c3c(C)c(OC)c(OC)cc3[nH]2)cc1 [Example 30, 2-[(4-{[Ethyl-(2-hydroxy-ethyl)-amino]-methyl}-benzyl)-methyl-amino]-6,7-dimethoxy-5-methyl-1H-quinazolin-4-one]
12 | 148.8 to 151 °C | COc1cc2[nH]c(N(C)Cc3ccc(CN(C)S(C)(=O)=O)cc3)nc(=O)c2c(OC)c1OC [Example 21, N-Methyl-N-(4-{[methyl-(5,6,7-trimethoxy-4-oxo-1,4-dihydro-quinazolin-2-yl)-amino]-methyl}-benzyl)-methanesulfonamide]
13 | 159.4 to 160.4 °C | COCCOC(=O)N(C)Cc1ccc(CN(C)c2nc(=O)c3c(C)c(OC)c(OC)cc3[nH]2)cc1 [Example 9, (4-{[(6,7-Dimethoxy-5-methyl-4-oxo-1,4-dihydro-quinazolin-2-yl)-methyl-amino]-methyl}-benzyl)-methyl-carbamic acid 2-methoxy-ethyl ester]
14 | 114.5 to 116.9 °C | COCCN(C)C(C)c1cccc(CN(C)c2nc(=O)c3c(C)c(OC)c(OC)cc3[nH]2)c1 (stereo not shown) [Example 54, 6,7-Dimedthoxy-2-[(3-{1-[(2-methoxy-ethyl)-methyl-amino]-ethyl}-benzyl)-methyl-amino]-5-methyl-1H-quinazolin-4-one]
15 | 199.9 to 204 °C | COc1cc2[nH]c(N(C)Cc3cccc(S(=O)(=O)N(C)C)c3)nc(=O)c2c(OC)c1OC [Example 130]
16 | 171 to 172.4 °C | COc1cc2[nH]c(N(C)Cc3cccc(C(C)N(C)S(C)(=O)=O)c3)nc(=O)c2c(OC)c1OC (stereo not shown) [Example 292, N-Methyl-N-[1-(3-{[methyl-(5,6,7-trimethoxy-4-oxo-1,4-dihydro-quinazolin-2-yl)-amino]-methyl}-phenyl)-ethyl]-methanesulfonamide]
17 | 158.1 to 159.2 °C | CCN(C)CCOc1ccc(CN(C)c2nc(=O)c3c(C)c(OC)c(OC)cc3[nH]2)cc1OC [Example 25, 2-({4-[2-(Ethyl-methyl-amino)-ethoxy]-3-methoxy-benzyl}-methyl-amino)-6,7-dimethoxy-5-methyl-1H-quinazolin-4-one]
18 | 154.6 to 159 °C | CNCCc1ccc(CN(C)c2nc(=O)c3c(C)c(OC)c(OC)cc3[nH]2)cc1 [Example 23, 6,7-Dimethoxy-5-methyl-2-{methyl-[4-(2-methylamino-ethyl)-benzyl]-amino}-1H-quinazolin-4-onbe]
19 | 145 °C | COCCC(=Nc1cccc(CN(C)c2nc(=O)c3c(OC)c(OC)c(OC)cc3[nH]2)c1)N(C)C [Example G-36, 3-Methoxy-N,N-dimethyl-N′-(3-{[methyl-(5,6,7-trimethoxy-4-oxo-1,4-dihydro-quinazolin-2-yl)-amino]-methyl}-phenyl)-propionamidine]
20 | 137.9 to 141.9 °C | COc1cc2[nH]c(N(C)Cc3cccc(OCCN(C)C)c3)nc(=O)c2c(C)c1OC [Example 164, 2-{[3-(2-Dimethylamino-ethoxy)-benzyl]-methyl-amino}-6,7-dimethoxy-5-methyl-1H-quinazolin-4-one]

Further lines, the compound ahead of its results:

Row | Compound | melting point
21 | COc1cc2[nH]c(N(C)Cc3cccc(N=C4N(C)CCN4C)c3)nc(=O)c2c(C)c1OC [Example 50, 2-{[3-(1,3-Dimethyl-imidazolidin-2-ylidenmeamino)-benzyl]-methyl-amino}-6,7-dimethoxy-5-methyl-1H-quinazoline-4-one] | 200.2 to 204.4 °C
22 | COc1cc2nc(N(C)Cc3cccc(C4=NCCN4C)c3)[nH]c(=O)c2c(C)c1OC [Example H-2, 6,7-Dimethoxy-5-methyl-2-{methyl-[3-(1-methyl-4,5-dihydro-1H-imidazol-2-yl)-benzyl]-amino}-1H-quinazolin-4-one] | 145 to 148 °C
23 | COc1cc2[nH]c(N(C)Cc3cccc(Oc4ncccn4)c3)nc(=O)c2c(OC)c1OC [Example F-16, 5,6,7-Trimethoxy-2-{methyl-[3-(pyrimidin-2-yloxy)-benzyl]-amino}-1H-quinazolin-4-one] | 191 to 192.9 °C
24 | COc1cc2[nH]c(N(C)Cc3cccc(/N=C(\C)N(C)C)c3)nc(=O)c2c(F)c1OC [Example 221, N′-(3-{[(5-Fluoro-6,7-dimethoxy-4-oxo-1,4-dihydro-quinazolin-2-yl)-methyl-amino]-methyl}-phenyl)-N,N-dimethyl-acetamidine] | 199.9 to 201.9 °C
25 | COc1cc2[nH]c(NCc3cccc(/N=C(\C)N(C)C)c3)nc(=O)c2c(C)c1OC [Example 72, N′-{3-[(6,7-Dimethoxy-5-methyl-4-oxo-1,4-dihydro-quinazolin-2-ylamino)-methyl]-phenyl}-N,N-dimethyl-acetamide] | 173 to 175 °C
26 | COc1cc2c(=O)nc(N(C)Cc3cccc(/N=C(\C)N(C)C)c3)[nH]c2cc1Cl [Example 74, N′-(3-{[(7-Chloro-6-methoxy-4-oxo-1,4-dihydro-quinazolin-2-yl)-methyl-amino]-methyl}-phenyl)-N,N-dimethyl-acetamide] | 185.4 to 191.9 °C
27 | COc1cc2[nH]c(N(C)Cc3cccc(NC4=NCCC4)c3)nc(=O)c2c(C)c1OC [Example G-42, 2-{[3-(4,5-Dihydro-3H-pyrrol-2-ylamino)-benzyl]-methyl-amino}-6,7-dimethoxy-5-methyl-1H-quinazolin-4-one] | 175.4 to 177.2 °C
28 | COc1cc2[nH]c(N(C)Cc3cccc(/N=C/N(C)C)c3)nc(=O)c2cc1OC (as salt: HCl) [Example 86, N′-(3-{[(6,7-Dimethoxy-4-oxo-1,4-dihydro-quinazolin-2-yl)-methyl-amino]-methyl}-phenyl)-N,N-dimethyl-formamidine] | 242 to 245 °C
29 | COc1cc2[nH]c(N(C)Cc3cccc(N4CCCS4(=O)=O)c3)nc(=O)c2c(C)c1OC [Example 252, 2-{[3-(1,1-Dioxo-1λ6-isothiazolidin-2-yl)-benzyl]-methyl-amino}-6,7-dimethoxy-5-methyl-1H-quinazolin-4-one] | 226 to 228.5 °C
30 | COc1cc2[nH]c(N(C)Cc3cccc(Nc4nc(Cl)ncc4C)c3)nc(=O)c2c(OC)c1OC [Example 217, 2-{[3-(2-Chloro-5-methyl-pyrimidin-4-ylamino)-benzyl]-methyl-amino}-5,6,7-trimethoxy-1H-quinazolin-4-one] | 225.9 to 227 °C
31 | COc1cc2[nH]c(N(C)Cc3cccc(N4CCCC4)c3)nc(=O)c2cc1OC.Cl | 220 to 223 °C
32 | COc1cc2[nH]c(N(Cc3ccccc3)C(C)C)nc(=O)c2cc1OC [Example A-7, 2-(Benzyl-isopropyl-amino)-6,7-dimethoxy-1H-quinazolin-4-one] | 168 to 170.5 °C
33 | COc1cc2[nH]c(N(C)Cc3cccc(N(C)S(=O)(=O)N(C)C)c3)nc(=O)c2c(C)c1OC [Example 170, N-(3-{[(6,7-dimethoxy-5-methyl-4-oxo-1,4-dihydro-quinazolin-2-yl)-methyl-amino]-methyl}-phenyl)-N,N′,N′-trimethylsulfamide] | 160 to 161.7 °C
34 | COc1cc2[nH]c(N(C)Cc3cccc(CN4CCC(O)C4)c3)nc(=O)c2c(C)c1OC (stereo not shown) [Example 49, 2-{[3-(3-Hydroxy-pyrrolidin-1-ylmethyl)-benzyl]-methyl-amino}-6,7-dimethoxy-5-methyl-1H-quinazolin-4-one] | 148 to 149.8 °C
